In patent US4421688A, “Macbecin derivatives” (Takeda Chemical Industries, Ltd., priority 1981, dated 1983):

Assay: Acute toxicity, mouse, intraperitoneal
Type: in vivo

SMILES: COC1c2cc(O)cc(c2O)NC(=O)/C(C)=C/C=C\C(C)C(OC(N)=O)/C(C)=C/C(C)C(OC)C(O)CC1C (centres unmarked) [E-5-R]
- acute toxicity as compared with Macbecin I and II (in words) (intraperitoneal, versus Macbecin I and II): lower toxicity as compared with Macbecin I and II
- acute toxicity (in words) (ip): low toxicity
